Tests used:
Format in all cases: cell-based
[1] = molecular target: T1, SHP2 protein (Homo sapiens, UniProt Q06124); test: Degradation activity on SHP2 protein in MIA Paca-2 cells (Western blot, DC50); parameters: endogenous in cells; host or cells: MIA Paca-2 cells; conditions: read-out: Degradation activity for differenct cell lines MIA Paca-2 (DC50)
T1 sequence (Q06124 1-593): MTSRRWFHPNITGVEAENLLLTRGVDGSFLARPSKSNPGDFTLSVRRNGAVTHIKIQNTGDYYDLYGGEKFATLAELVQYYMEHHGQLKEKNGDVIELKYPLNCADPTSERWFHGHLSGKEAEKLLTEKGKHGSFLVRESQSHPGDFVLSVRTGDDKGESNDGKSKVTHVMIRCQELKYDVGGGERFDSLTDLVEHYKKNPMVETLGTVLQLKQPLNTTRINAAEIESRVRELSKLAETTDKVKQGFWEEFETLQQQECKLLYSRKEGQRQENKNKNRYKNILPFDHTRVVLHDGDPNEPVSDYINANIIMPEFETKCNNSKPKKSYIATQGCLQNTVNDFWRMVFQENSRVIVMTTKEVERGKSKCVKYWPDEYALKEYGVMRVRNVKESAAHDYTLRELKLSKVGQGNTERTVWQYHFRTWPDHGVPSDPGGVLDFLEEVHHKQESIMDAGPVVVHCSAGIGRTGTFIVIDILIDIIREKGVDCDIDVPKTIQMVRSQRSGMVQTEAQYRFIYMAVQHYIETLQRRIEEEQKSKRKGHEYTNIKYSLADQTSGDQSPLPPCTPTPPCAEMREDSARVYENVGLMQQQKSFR
How it was run: (§1)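 DC50 is the concentration degrading 50% of SHP2 relative to DMSO control. It was derived by fitting Western blot band densitometry (anti-SHP2, GAPDH reference) from cells exposed 24 h to 0.1–100 nM compound in 0.1% DMSO.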

[2] = molecular target: T1, SHP2 protein; test: Degradation activity on SHP2 protein in NCI-H358 cells (Western blot, DC50); parameters: endogenous in cells; conditions: read-out: Degradation activity for differenct cell lines NCI-H358 (DC50)
How it was run: as §1

[3] = molecular target: T1, SHP2 protein; test: Degradation activity on SHP2 protein in MV-411 cells (Western blot, DC50); parameters: endogenous in cells; conditions: MV411 cells, 24 hours, read-out: Degradation activity for differenct cell lines MV411 (DC50)
How it was run: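 Western blot of SHP2 (GAPDH loading control, 30 μg protein/lane) in lysates of MV-411 cells exposed 24 h to final compound concentrations of 100, 10, 3, 1, 0.3 and 0.1 nM (0.1% DMSO). Degradation relative to DMSO set at 100%; DC50 derived by curve fitting.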

[4] = tested on: MV-411 cell line; test: Inhibition of cell proliferation, MV-411 (CCK-8); conditions: Homo sapiens, MV4-11, 120 h, MV411 cells, 5 days, read-out: Inhibition activity on the proliferation of different cell lines MV411 (IC50)
Method: • MV-411 cell line (COBIER, CBP-60522) • FBS (GEMINI, Cat. No. 900-108) • 0.01M PBS (Biosharp, Cat. No. 162262) • IMDM (Hyclone, Cat. No. SH30228.01) • Penicillin-Streptomycin (Gibco, Cat. No. 15140122) • DMSO (Sigma, Cat. No. D5879) • Cell counting kit-8 (Signalway Antibody, Cat. No. CP002) • Centrifuge Tube, 15 ml (Excell Bio, Cat. No. CS015-0001) • Cell Culture Dish, (WHB, Cat. No. CS016-0128) • 96-well cell culture cluster (Corning, Cat. No. 3599)
• (1) Cell culture medium: IMDM medium+10% FBS+1% Pen Strep; • (2) PBS buffer: PBS powder was dissolved in 2 L of ultrapure water and sterilized;
(1) MV-411 cells were cultured in the cell culture medium, and then well-growing cells were selected and inoculated in a 96-well plate at 80 μL/well, with 2×10^4 cells/well. The plate was incubated overnight in a 5% CO2 cell incubator at 37° C.
(2) 10 mM storage solution of each drug was prepared using dimethylsulfoxide (DMSO). The stock solution was diluted in a ratio of 1:3 with DMSO before use, and then the solution was serially diluted in a ratio of 1:3, to obtain 9 gradient concentrations. Each concentration was further diluted with the medium in a ratio of 1:200 (to ensure that the DMSO concentration in the culture system was 0.1%). Two wells were set for each concentration. 20 μL of each compound solution was added to the cell culture well (with a final concentration of 10 μM, 3.3 μM, 1.1 μM . . . ). The plate was gently shaken and mixed. Additionally, 3 negative control wells (only containing cells) and 3 blank control wells (only containing the medium) were included (6 wells were each added with 20 μL of DMSO diluted with the medium in a ratio of 1:200).
(1) After 5 days of cultivation, 10 μL of CCK-8 was added to each well, and then the plate was further cultured for 3 h at 37° C. in a 5% CO2 cell incubator.
(2) The absorbance (OD value) was measured at 450 nm with a multifunctional microplate reader. (3) The data were analyzed using the Dose-response-inhibition equation in GraphPad Prism8 software to obtain the IC50 value.

Structure (SMILES) | DC50 [1] | DC50 [2] | DC50 [3] | IC50 [4]
Cc1ncsc1-c1ccc([C@H](C)NC(=O)[C@@H]2C[C@@H](O)CN2C(=O)[C@@H](NC(=O)c2cnc(N3CCC4(CN(CCC(=O)Nc5cccc(Sc6cnc(N7CCC(C)(N)CC7)cn6)c5)C4)C3)nc2)C(C)(C)C)cc1 [Compound 64] | 100 to 1000 nM | 100 to 1000 nM | < 100 nM | –
CC1(N)CCN(c2cnc(Sc3cccc(NC(=O)CCCCCCN4CC5(CCN(c6ccc(C(=O)NCc7ccc8c(c7)CN(C7CCC(=O)NC7=O)C8=O)nc6)C5)C4)c3)cn2)CC1 (stereo not shown) [Compound 186] | < 100 nM | < 100 nM | < 100 nM | –
CC1(N)CCN(c2cnc(Sc3cccc(NC(=O)CCCCCCCN4CC5CN(c6ccc(C(=O)NCc7ccc8c(c7)CN(C7CCC(=O)NC7=O)C8=O)nn6)CC5C4)c3)cn2)CC1 (stereo not shown) [Compound 100] | < 100 nM | < 100 nM | < 100 nM | –
Cc1ncsc1-c1ccc([C@H](C)NC(=O)[C@@H]2C[C@@H](O)CN2C(=O)[C@@H](NC(=O)c2cnc(N3CC(OCCCCCCCCC(=O)Nc4ccc(Sc5cnc(N6CCC(C)(N)CC6)cn5)cc4)C3)nc2)C(C)(C)C)cc1 [Compound 75] | < 100 nM | < 100 nM | < 100 nM | –
Cc1ncsc1-c1ccc([C@H](C)NC(=O)[C@@H]2C[C@@H](O)CN2C(=O)[C@@H](NC(=O)CCCCCN2CCC3(C2)CN(CCC(=O)Nc2cccc(Sc4cnc(N5CCC(C)(N)CC5)cn4)c2)C3)C(C)(C)C)cc1 [Compound 46] | – | > 1000 nM | < 100 nM | –
CC1CN(c2ccc(C(=O)NCc3ccc4c(c3)CN(C3CCC(=O)NC3=O)C4=O)nn2)CC(C)N1CCCCCCCCC(=O)Nc1cccc(Sc2cnc(N3CCC(C)(N)CC3)cn2)c1 (stereo not shown) [Compound 138] | < 100 nM | < 100 nM | < 100 nM | < 1000 nM
CC1(N)CCN(c2cnc(Sc3cccc(NC(=O)CCN4CCN(c5ccc(C(=O)NCc6ccc7c(c6)CN(C6CCC(=O)NC6=O)C7=O)nn5)CC4)c3)cn2)CC1 (stereo not shown) [Compound 248] | < 100 nM | < 100 nM | – | –
CC1(N)CCN(c2cnc(Sc3cccc(NC(=O)c4ccc(N5CCC(N6CC=C(c7ccc(C(=O)NCc8ccc9c(c8)CN(C8CCC(=O)NC8=O)C9=O)nc7F)CC6)CC5)c(F)c4)c3)cn2)CC1 (stereo not shown) [Compound 467] | < 100 nM | 100 to 1000 nM | – | –
CC1(N)CCN(c2cnc(Sc3cccc(NC(=O)CCCCCCN4CC5(CC=C(c6ccc(C(=O)NCc7ccc8c(c7)CN(C7CCC(=O)NC7=O)C8=O)nn6)CC5)C4)c3)cn2)CC1 (stereo not shown) [Compound 207] | < 100 nM | < 100 nM | < 100 nM | –
CC1(N)CCN(c2cnc(Sc3cccc(NC(=O)CCCCCCN4CC5(CCN(c6ccc(C(=O)NCc7ccc8c(c7)CN(C7CCC(=O)NC7=O)C8=O)nc6Cl)C5)C4)c3)cn2)CC1 (stereo not shown) [Compound 200] | < 100 nM | < 100 nM | < 100 nM | –
NC1(CO)CCN(c2cnc(Sc3cccc(NC(=O)c4ccc(N5CCC(N6CC=C(c7ccc(C(=O)NCc8ccc9c(c8)CN(C8CCC(=O)NC8=O)C9=O)nn7)CC6)CC5)cc4)c3)cn2)CC1 (stereo not shown) [Compound 375] | > 1000 nM | < 100 nM | – | –
C[C@H]1CN(CCCCCCCCC(=O)Nc2cccc(Sc3cnc(N4CCC(C)(N)CC4)cn3)c2)CCN1c1ccc(C(=O)NCc2ccc3c(c2)CN(C2CCC(=O)NC2=O)C3=O)nn1 (stereo partly shown) [Compound 250] | < 100 nM | < 100 nM | – | –

Next, values leading:

DC50 [1] | DC50 [2] | DC50 [3] | IC50 [4] | Structure (SMILES)
100 to 1000 nM | < 100 nM | < 100 nM | – | CC1(N)CCN(c2cnc(Sc3cccc(NC(=O)CCCCCCCOC4CCN(c5ncc(C(=O)NCc6ccc7c(c6)CN(C6CCC(=O)NC6=O)C7=O)cn5)CC4)c3)cn2)CC1 (stereo not shown) [Compound 79]
< 100 nM | < 100 nM | < 100 nM | – | CC1(N)CCN(c2cnc(Sc3cccc(NC(=O)CCCCCCCCN4CC=C(c5ccc(C(=O)NCc6ccc7c(c6)CN(C6CCC(=O)NC6=O)C7=O)nn5)CC4)c3)cn2)CC1 (stereo not shown) [Compound 188]
< 100 nM | 100 to 1000 nM | < 100 nM | – | CC1(N)CCN(c2cnc(Sc3cccc(NC(=O)CCCCCOC4CC5(CCN(c6ccc(C(=O)NCc7ccc8c(c7)CN(C7CCC(=O)NC7=O)C8=O)cc6F)CC5)C4)c3)cn2)CC1 (stereo not shown) [Compound 176]
< 100 nM | < 100 nM | < 100 nM | – | Cc1ncsc1-c1ccc([C@H](C)NC(=O)[C@@H]2C[C@@H](O)CN2C(=O)[C@@H](NC(=O)c2cnc(N3CC(OCCCCCCC(=O)Nc4cccc(Sc5cnc(N6CCC(C)(N)CC6)cn5)c4)C3)nc2)C(C)(C)C)cc1 [Compound 86]
< 100 nM | < 100 nM | < 100 nM | – | Cc1ncsc1-c1ccc([C@H](C)NC(=O)[C@@H]2C[C@@H](O)CN2C(=O)[C@@H](NC(=O)c2cnc(N3CCC(OCCCCCCCC(=O)Nc4cccc(Sc5cnc(N6CCC(C)(N)CC6)cn5)c4)CC3)nc2)C(C)(C)C)cc1 [Compound 78]
< 100 nM | < 100 nM | – | – | CC1(N)CCN(c2cnc(Sc3cccc(NC(=O)c4ncc(N5CCC(N6CCN(c7ccc(C(=O)NCc8ccc9c(c8)CN(C8CCC(=O)NC8=O)C9=O)nc7)CC6)CC5)cn4)c3)cn2)CC1 (stereo not shown) [Compound 451]
< 100 nM | < 100 nM | – | – | Cc1cc(C(=O)Nc2cccc(Sc3cnc(N4CCC(C)(N)CC4)cn3)c2)ccc1N1CCC(N2CC=C(c3cnc(C(=O)NCc4ccc5c(c4)CN(C4CCC(=O)NC4=O)C5=O)c(F)c3)CC2)CC1 (stereo not shown) [Compound 439]
> 1000 nM | 100 to 1000 nM | – | – | CC1(N)CCN(c2cnc(Sc3cccc(NCc4ccc(CN5CCN(c6ccc(C(=O)NCc7ccc8c(c7)CN(C7CCC(=O)NC7=O)C8=O)nn6)CC5)cc4)c3)cn2)CC1 (stereo not shown) [Compound 247]
< 100 nM | < 100 nM | – | – | CC1(N)CCN(c2cnc(Sc3cccc(NC(=O)CCCCCCCCN4CCN(c5ccc(C(=O)NCc6ccc7c(c6)CN(C6CCC(=O)NC6=O)C7=O)cc5)CC4)c3)cn2)CC1 (stereo not shown) [Compound 229]
< 100 nM | < 100 nM | – | – | CC1(N)CCN(c2cnc(Sc3cccc(NC(=O)CCCCCCCCN4C[C@@H]5C[C@H]4CN5c4ccc(C(=O)NCc5ccc6c(c5)CN(C5CCC(=O)NC5=O)C6=O)nn4)c3)cn2)CC1 (stereo partly shown) [Compound 237]
< 100 nM | < 100 nM | – | – | CC1(N)CCN(c2cnc(Sc3cccc(NC(=O)c4ccc(N5CCC(N6CC=C(c7ccc(C(=O)NCc8ccc9c(c8)CN(C8CCC(=O)NC8=O)C9=O)cc7)CC6)CC5)cc4)c3)cn2)CC1 (stereo not shown) [Compound 446]
< 100 nM | < 100 nM | – | – | CC1(N)CCN(c2cnc(Sc3cccc(NC(=O)c4ccc(N5CCC(N6CCN(c7ccc(C(=O)NCc8ccc9c(c8)CN(C8CCC(=O)NC8=O)C9=O)nc7)CC6)CC5)c(F)c4)c3)cn2)CC1 (stereo not shown) [Compound 396]

— patent US20240383908A1, “SYNTHESIS AND APPLICATION OF PHOSPHATASE DEGRADER” (HINOVA PHARMACEUTICALS INC., priority 2021, published 2024)
